From publication PMC12102759 (Protein Science : A Publication of the Protein Society, 2025)

Each sequence was assayed on G3BP1 NFT2. Settings: library DMS-CoV; bait G3BP1 NFT2; prey N; peptide APRITFGGPSDSTGSN; listed as aa = residue placed at this position; column sums to 1.
Format: binding, human

In order of rising “DMS PSSM value, P (position 9)” value:
1. APRITFGGPSDSTGSN P9M (APRITFGGMSDSTGSN)  0
2. APRITFGGPSDSTGSN P9N (APRITFGGNSDSTGSN)  0
3. APRITFGGPSDSTGSN P9S (APRITFGGSSDSTGSN)  0.003052
4. APRITFGGPSDSTGSN P9Y (APRITFGGYSDSTGSN)  0.04934

In order of falling “DMS PSSM value, S (position 10)” value:
1. APRITFGGPSDSTGSN S10M (APRITFGGPMDSTGSN)  0.2077
2. APRITFGGPSDSTGSN S10P (APRITFGGPPDSTGSN)  0.1036
3. APRITFGGPSDSTGSN S10R (APRITFGGPRDSTGSN)  0
4. APRITFGGPSDSTGSN S10N (APRITFGGPNDSTGSN)  0

In order of rising “DMS PSSM value, G (position 8)” value:
1. APRITFGGPSDSTGSN G8Q (APRITFGQPSDSTGSN)  0
2. APRITFGGPSDSTGSN G8D (APRITFGDPSDSTGSN)  0
3. APRITFGGPSDSTGSN G8W (APRITFGWPSDSTGSN)  0
4. APRITFGGPSDSTGSN G8I (APRITFGIPSDSTGSN)  0
5. APRITFGGPSDSTGSN G8L (APRITFGLPSDSTGSN)  0.0001736
6. APRITFGGPSDSTGSN G8P (APRITFGPPSDSTGSN)  0.001619
7. APRITFGGPSDSTGSN G8S (APRITFGSPSDSTGSN)  0.005734
8. APRITFGGPSDSTGSN G8Y (APRITFGYPSDSTGSN)  0.02437
9. APRITFGGPSDSTGSN G8A (APRITFGAPSDSTGSN)  0.9067

In order of falling “DMS PSSM value, P (position 2)” value:
1. APRITFGGPSDSTGSN P2E (AERITFGGPSDSTGSN)  0.7321
2. APRITFGGPSDSTGSN P2V (AVRITFGGPSDSTGSN)  0

In order of falling “DMS PSSM value, R (position 3)” value:
1. APRITFGGPSDSTGSN R3L (APLITFGGPSDSTGSN)  0.2826
2. APRITFGGPSDSTGSN R3E (APEITFGGPSDSTGSN)  0.01584

In order of falling “DMS PSSM value, S (position 12)” value:
1. APRITFGGPSDSTGSN S12I (APRITFGGPSDITGSN)  0.4295
2. APRITFGGPSDSTGSN S12A (APRITFGGPSDATGSN)  0.01432
3. APRITFGGPSDSTGSN S12G (APRITFGGPSDGTGSN)  0.0009188
4. APRITFGGPSDSTGSN S12D (APRITFGGPSDDTGSN)  0

In order of falling “DMS PSSM value, G (position 14)” value:
1. APRITFGGPSDSTGSN G14F (APRITFGGPSDSTFSN)  0.04037
2. APRITFGGPSDSTGSN G14L (APRITFGGPSDSTLSN)  0.0229
3. APRITFGGPSDSTGSN G14T (APRITFGGPSDSTTSN)  0.007708
4. APRITFGGPSDSTGSN G14Y (APRITFGGPSDSTYSN)  0.003136
5. APRITFGGPSDSTGSN G14I (APRITFGGPSDSTISN)  0.0004999
6. APRITFGGPSDSTGSN G14N (APRITFGGPSDSTNSN)  0.000305

In order of falling “DMS PSSM value, T (position 5)” value:
1. APRITFGGPSDSTGSN T5L (APRILFGGPSDSTGSN)  0.04693
2. APRITFGGPSDSTGSN T5W (APRIWFGGPSDSTGSN)  0
3. APRITFGGPSDSTGSN T5R (APRIRFGGPSDSTGSN)  0
4. APRITFGGPSDSTGSN T5D (APRIDFGGPSDSTGSN)  0
5. APRITFGGPSDSTGSN T5F (APRIFFGGPSDSTGSN)  0
6. APRITFGGPSDSTGSN T5M (APRIMFGGPSDSTGSN)  0

In order of rising “DMS PSSM value, A (position 1)” value:
1. APRITFGGPSDSTGSN A1R (RPRITFGGPSDSTGSN)  0
2. APRITFGGPSDSTGSN A1E (EPRITFGGPSDSTGSN)  0.1097

In order of rising “DMS PSSM value, T (position 13)” value:
1. APRITFGGPSDSTGSN T13W (APRITFGGPSDSWGSN)  0
2. APRITFGGPSDSTGSN T13D (APRITFGGPSDSDGSN)  9.878e-5
3. APRITFGGPSDSTGSN T13G (APRITFGGPSDSGGSN)  0.00113
4. APRITFGGPSDSTGSN T13L (APRITFGGPSDSLGSN)  0.003677
5. APRITFGGPSDSTGSN T13A (APRITFGGPSDSAGSN)  0.02642

With “APRITFGGPSDSTGSN D11R (APRITFGGPSRSTGSN)” the “DMS PSSM value, D (position 11)” value was 0.

With APRITFGGPSDSTGSN F6L (APRITLGGPSDSTGSN) the “DMS PSSM value, F (position 6)” value was 0.004454.

With APRITFGGPSDSTGSN I4R (APRRTFGGPSDSTGSN) the “DMS PSSM value, I (position 4)” value was 0.

In order of falling “DMS PSSM value, G (position 7)” value:
1. APRITFGGPSDSTGSN G7K (APRITFKGPSDSTGSN)  0
2. APRITFGGPSDSTGSN G7W (APRITFWGPSDSTGSN)  0

In the case of “APRITFGGPSDSTGSN S15V (APRITFGGPSDSTGVN)”, the “DMS PSSM value, S (position 15)” value is reported as 0.03856.

Same assay, conditions: library DMS-CoV; bait G3BP1 NFT2; prey N; peptide RNAPRITFGGPSDSTG; listed as aa = residue placed at this position; column sums to 1

With RNAPRITFGGPSDSTG T7Q (RNAPRIQFGGPSDSTG) the “DMS PSSM value, T (position 7)” value was 0.
